The record followed here is ChEMBL document CHEMBL1201862, “PubChem BioAssay data set” (2004).

Calls of active or inactive are those of the source. For most assays here, no stated cut-off is given here; in the data, actives have a measured EC50 and inactives only a lower limit. A value given as a limit tells only on which side of the number the result lay.

A short description of test [1]: viability of uninfected HEp-2 cells – cell-based, HTS, cytotoxicity control for RSV inhibitor project, dose response (AID 2410). Conditions: human respiratory syncytial virus. The test is classed as functional.
In another test the test system is H9c2. The test can be described thus: cells. The test is classed as functional, cell-based. Conditions: Rattus norvegicus, H9c2, Myocardium.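 Further: confirmatory concentration-response retest of ultra-high-throughput screening hits for modulation of myocardial damage; cell death induced by hydrogen peroxide oxidative stress; compound pretreatment for 60 min then peroxide exposure for 2 h; potency is for protecting the cells against peroxide damage rather than for killing them.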
Test [2] deals with Streptococcus sp. 'group A'. The test can be described thus: Streptococcus pyogenes SK(-)GAS viability under kanamycin – luminescence, BacTiterGlo, confirmation, counter-screen for streptokinase expression inhibitor project, dose response (AID 1900). The test is classed as functional, organism-based. On the technique in general: The purpose of a counterscreen is to sort out artefacts and off-target activity.

A further test has as its target T1, Streptokinase A (Streptococcus pyogenes serotype M1, UniProt P10520).
T1 sequence (P10520 whole entry): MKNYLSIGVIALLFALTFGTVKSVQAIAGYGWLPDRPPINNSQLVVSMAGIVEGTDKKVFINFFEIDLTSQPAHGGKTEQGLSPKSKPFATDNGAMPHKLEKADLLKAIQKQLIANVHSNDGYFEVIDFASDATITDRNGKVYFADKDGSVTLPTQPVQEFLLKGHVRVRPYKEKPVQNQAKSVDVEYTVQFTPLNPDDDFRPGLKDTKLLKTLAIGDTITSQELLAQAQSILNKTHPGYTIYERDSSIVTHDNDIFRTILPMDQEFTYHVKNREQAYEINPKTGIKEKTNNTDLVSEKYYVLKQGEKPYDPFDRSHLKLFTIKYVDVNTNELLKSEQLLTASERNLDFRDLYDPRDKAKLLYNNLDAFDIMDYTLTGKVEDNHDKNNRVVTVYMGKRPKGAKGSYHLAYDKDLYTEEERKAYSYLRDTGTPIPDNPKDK
The test can be described thus: viability-normalized secreted streptokinase activity reduction – plasminogen activation absorbance, OD405, dose response (AID 1914).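 Further: secreted streptokinase activity via plasminogen activation per viability signal from cell pellet.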 Format: functional, Streptococcus pyogenes M1 GAS.

The next test deals with Streptococcus. The test is described as follows: GAS UMAA2166 growth inhibition – luminescence, BacTiterGlo, counter-screen for streptokinase expression inhibitor project, dose response (AID 1915).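 Further: potency for reduction of bacterial viability or growth.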 The test is classed as functional, organism-based.
The nature of test [3]: luciferase reporter signal suppression in cells – H4 neuroglioma cells, luminescence, dose response (AID 1990). Format: functional, cell-based. A general note: In a reporter assay the amount or activity of a reporter protein is the signal.
Test [4] is described as follows: Luminescence Cell-Based Dose Response HTS to Identify Inhibitors of 5'UTR Stem-Loop Driven Prion Protein mRNA Translation in H4 Neuroglioblastoma Cells. [Related pubchem assays: 1827 (Project Summary), 1813 (Primary HTS)]. Format: functional.
Test [5] in a line: alpha-synuclein stem-loop luciferase translation blockers – H4 neuroglioma cells, luminescence, confirmation (AID 1988). Format: functional, cell-based.
The next test has as its system INS1. The test is described as follows: INS-1E survival protection against cytokine death – cell-based, luminescence, retest, dose response (AID 449756).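 Further: cell death triggered by IL-1 beta plus TNF-alpha plus IFN-gamma mixture; protective hits raise ATP signal compared with cytokine alone wells.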 Format: functional. The following applies: Rattus norvegicus.
The nature of test [6]: Luminescence Cell-Based Dose Confirmation HTS to Identify Activators of 5'UTR Stem-Loop Driven Alpha-Synuclein mRNA Translation in H4 Neuroglioblastoma Cells. [Related pubchem assays: 1829 (Project Summary), 1814 (Primary HTS)]. The test is classed as functional.
The nature of test [7]: Luminescence Cell-Based Dose Response HTS to Identify Activators of Luciferase Translation or Activity in H4 […] Cells. [Related pubchem assays: 1829 (Project Summary), 1814 (Primary HTS)]. Format: functional.
The subject of another test is H4. The test is described as follows: Luminescence Cell-Based Dose Response HTS to Identify Activators of 5'UTR Stem-Loop Driven Prion Protein mRNA Translation in H4 Neuroglioblastoma Cells. [Related pubchem assays: 1829 (Project Summary), 1814 (Primary HTS)]. The test is classed as functional. Conditions: Homo sapiens.
In test [8] the target is T2, Fatty acid synthase (Homo sapiens, UniProt P49327). The test is described as follows: inhibition of human FAS-TE enzyme activity – biochemical, endpoint fluorescence intensity, uHTS hits, dose response (AID 624327).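 Further: fluorescence from hydrolysis of an O-methyl fluorescein acyl ester substrate by the enzyme.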 Format: functional.
For test [9], the target named is T2, Fatty acid synthase. The test is described as follows: inhibition of human FAS-TE enzyme activity – biochemical, kinetic fluorescence intensity, dose response (AID 624326).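 Further: rate of fluorescence rise from hydrolysis of a fluorogenic O-methyl fluorescein ester substrate.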 Format: functional.
A further test has as its target T3, Protein RecA (Mycobacterium tuberculosis, UniProt P9WHJ3).
T3 sequence (P9WHJ3 whole entry): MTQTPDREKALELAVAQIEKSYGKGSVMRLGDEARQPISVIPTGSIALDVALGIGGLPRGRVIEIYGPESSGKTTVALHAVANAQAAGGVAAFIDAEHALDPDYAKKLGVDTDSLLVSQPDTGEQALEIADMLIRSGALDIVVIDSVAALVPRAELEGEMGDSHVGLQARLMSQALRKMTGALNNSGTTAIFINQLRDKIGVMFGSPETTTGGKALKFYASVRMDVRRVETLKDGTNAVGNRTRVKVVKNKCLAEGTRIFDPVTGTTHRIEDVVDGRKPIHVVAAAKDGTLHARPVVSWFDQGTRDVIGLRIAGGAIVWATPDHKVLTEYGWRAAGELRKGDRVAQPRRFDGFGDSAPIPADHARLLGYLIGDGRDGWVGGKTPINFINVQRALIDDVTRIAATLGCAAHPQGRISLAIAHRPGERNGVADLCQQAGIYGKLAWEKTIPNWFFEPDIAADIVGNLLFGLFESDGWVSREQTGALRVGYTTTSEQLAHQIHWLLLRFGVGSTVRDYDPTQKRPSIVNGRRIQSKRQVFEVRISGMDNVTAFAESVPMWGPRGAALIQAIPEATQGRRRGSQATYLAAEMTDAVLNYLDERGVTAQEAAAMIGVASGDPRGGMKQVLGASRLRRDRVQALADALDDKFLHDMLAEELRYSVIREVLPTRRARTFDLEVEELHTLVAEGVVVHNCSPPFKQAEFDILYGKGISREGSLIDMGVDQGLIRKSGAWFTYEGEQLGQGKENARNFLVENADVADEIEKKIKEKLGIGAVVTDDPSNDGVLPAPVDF
The test can be described thus: Fluorescence Cell-Free Homogeneous Dose Retest to Identify Inhibitors of RecA-Intein Splicing Activity. [Related pubchem assays (depositor defined):AID2097, AID2223, AID489010, AID492950]. The test is classed as functional.

T2 sequence (P49327 whole entry): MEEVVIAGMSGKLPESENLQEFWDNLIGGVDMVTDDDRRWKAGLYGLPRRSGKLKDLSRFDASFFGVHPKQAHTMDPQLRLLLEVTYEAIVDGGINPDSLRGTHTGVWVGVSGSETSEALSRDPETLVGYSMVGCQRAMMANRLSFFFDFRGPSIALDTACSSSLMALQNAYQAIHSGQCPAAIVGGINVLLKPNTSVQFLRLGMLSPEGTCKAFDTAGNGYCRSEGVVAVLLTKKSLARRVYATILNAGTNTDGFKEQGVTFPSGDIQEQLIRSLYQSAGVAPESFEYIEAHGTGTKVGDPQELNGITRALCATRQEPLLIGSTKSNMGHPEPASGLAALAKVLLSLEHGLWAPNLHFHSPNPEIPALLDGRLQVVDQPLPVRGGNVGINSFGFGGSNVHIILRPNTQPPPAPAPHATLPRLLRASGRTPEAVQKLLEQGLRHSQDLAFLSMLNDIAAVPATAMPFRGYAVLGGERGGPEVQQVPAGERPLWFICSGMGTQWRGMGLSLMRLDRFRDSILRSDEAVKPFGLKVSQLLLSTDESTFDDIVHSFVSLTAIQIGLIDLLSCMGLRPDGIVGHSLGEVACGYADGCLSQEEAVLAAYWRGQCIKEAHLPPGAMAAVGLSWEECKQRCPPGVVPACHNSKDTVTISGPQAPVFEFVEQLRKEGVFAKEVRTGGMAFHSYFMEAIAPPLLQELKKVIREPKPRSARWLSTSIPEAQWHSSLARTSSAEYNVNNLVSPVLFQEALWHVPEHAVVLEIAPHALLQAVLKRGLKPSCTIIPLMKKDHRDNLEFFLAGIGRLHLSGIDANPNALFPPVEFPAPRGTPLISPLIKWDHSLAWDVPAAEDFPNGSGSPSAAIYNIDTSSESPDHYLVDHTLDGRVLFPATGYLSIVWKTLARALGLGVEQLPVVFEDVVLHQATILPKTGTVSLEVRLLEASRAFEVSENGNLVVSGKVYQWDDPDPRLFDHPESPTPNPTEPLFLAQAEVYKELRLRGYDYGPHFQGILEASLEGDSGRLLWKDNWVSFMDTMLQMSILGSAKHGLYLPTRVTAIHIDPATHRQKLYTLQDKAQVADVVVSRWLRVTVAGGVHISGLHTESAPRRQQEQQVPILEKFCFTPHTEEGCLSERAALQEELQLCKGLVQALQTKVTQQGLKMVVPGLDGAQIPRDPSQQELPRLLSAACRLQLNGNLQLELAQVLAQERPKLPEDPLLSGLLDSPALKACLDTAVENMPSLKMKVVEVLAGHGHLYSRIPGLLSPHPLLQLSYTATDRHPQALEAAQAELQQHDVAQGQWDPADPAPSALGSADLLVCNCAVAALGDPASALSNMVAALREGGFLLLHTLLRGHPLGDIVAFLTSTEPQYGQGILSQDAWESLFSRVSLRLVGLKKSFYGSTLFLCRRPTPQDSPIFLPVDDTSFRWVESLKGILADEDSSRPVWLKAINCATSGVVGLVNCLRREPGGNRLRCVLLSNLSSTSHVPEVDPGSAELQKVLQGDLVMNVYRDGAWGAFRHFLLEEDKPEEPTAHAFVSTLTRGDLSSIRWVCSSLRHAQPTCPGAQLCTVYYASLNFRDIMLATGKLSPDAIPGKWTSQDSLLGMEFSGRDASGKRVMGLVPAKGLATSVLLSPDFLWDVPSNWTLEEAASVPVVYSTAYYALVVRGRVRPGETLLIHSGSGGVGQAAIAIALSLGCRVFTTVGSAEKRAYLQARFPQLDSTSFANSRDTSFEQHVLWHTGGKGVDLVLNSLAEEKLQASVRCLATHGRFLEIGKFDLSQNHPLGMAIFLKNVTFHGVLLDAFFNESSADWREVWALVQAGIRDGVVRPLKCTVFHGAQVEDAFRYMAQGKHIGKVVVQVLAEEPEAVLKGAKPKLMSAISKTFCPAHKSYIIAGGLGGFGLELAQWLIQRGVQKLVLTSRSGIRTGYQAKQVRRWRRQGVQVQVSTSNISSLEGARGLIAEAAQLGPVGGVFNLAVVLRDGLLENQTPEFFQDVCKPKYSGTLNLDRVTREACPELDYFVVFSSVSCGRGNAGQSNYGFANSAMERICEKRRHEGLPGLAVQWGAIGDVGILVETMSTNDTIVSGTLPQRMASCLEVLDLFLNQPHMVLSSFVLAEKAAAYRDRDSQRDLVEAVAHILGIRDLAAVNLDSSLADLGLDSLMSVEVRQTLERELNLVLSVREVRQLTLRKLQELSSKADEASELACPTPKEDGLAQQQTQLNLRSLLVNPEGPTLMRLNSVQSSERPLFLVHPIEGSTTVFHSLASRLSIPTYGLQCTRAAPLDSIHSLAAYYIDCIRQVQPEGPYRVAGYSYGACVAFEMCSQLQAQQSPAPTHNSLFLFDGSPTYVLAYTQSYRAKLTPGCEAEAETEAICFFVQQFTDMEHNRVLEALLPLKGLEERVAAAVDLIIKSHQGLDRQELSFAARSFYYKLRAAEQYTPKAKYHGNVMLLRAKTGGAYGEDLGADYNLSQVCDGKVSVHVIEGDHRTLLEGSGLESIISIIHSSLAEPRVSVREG

With `C[C@@H](C(=O)Nc1ccc2ccccc2c1)[C@H]1C[C@]1(C)[C@H](NS(=O)(=O)c1ccccc1)c1ccccc1`, the CC50 in test [1] was 36.4 µM (active).

Regarding `Cc1cccc(NC(=O)c2cc(-c3ccco3)nc3ccccc23)n1`, the IC50 in the test on H9c2 was > 79 µM (inactive).

With `COc1ccc(C(C(=O)NCc2ccccc2)N(Cc2ccco2)C(=O)c2snc(C(N)=O)c2N)cc1` (centres undefined), the IC50 in the test on H9c2 was > 79 µM (inactive).

Consider `COc1cccc(-c2nnc3sc(-c4ccccn4)nn23)c1`, for which the IC50 in the test with H9c2 was > 79 µM (inactive).

Take `CCOC(=O)c1ccc(NC(=O)CC2SC(N/N=C/c3c[nH]c4ccccc34)=NC2=O)cc1` (centres undefined): the EC50 is 3.35 µM (active) in [2], > 150 µM (not active) on Streptokinase A and > 150 µM (not active) with Streptococcus.

In the case of `FC(F)(F)c1nc2ccccc2n2c(-c3ccc(Cl)cc3)nnc12`, the EC50 in test [3] was 9.07 µM (active); in [4], 9.21 µM (active); in [5] it was 8.92 µM (active). For the same molecule, the AC50 in the test with INS1 is 6.4 µM (active).

For `O=C(NC(=S)N1CCN(C(c2ccccc2)c2ccccc2)CC1)c1ccc(S(=O)(=O)N2CCOCC2)cc1`, the EC50 in test [2] was 1.14 µM (active); at Streptokinase A, > 150 µM (not active); in the test with Streptococcus, 108 µM (active).

Take `O=C(COC(=O)c1cc(-c2cccnc2)nc2ccccc12)Nc1ccc(F)cc1F`: the IC50 in the test with H9c2 was 13.8 µM (active).

Take `CCC(=O)Nc1ccc(Nc2nc(C)c([N+](=O)[O-])c(Nc3ccc(NC(=O)CC)cc3)n2)cc1`: the EC50 in test [2] is 0.487 µM (active); at Streptokinase A it was > 150 µM (not active); with Streptococcus, 49.3 µM (active).

Take `Cc1cc(C)n(-c2nc(NCCO)c3c4c(sc3n2)CCCC4)n1`: the AC50 with INS1 is 5.3 µM (active).

With `O=C(CSc1ccc(-c2ccc(Cl)cc2)nn1)NC1CCCC1`, the EC50 (in test [2]; on Streptokinase A; in the test with Streptococcus) was > 150 µM (not active) throughout.

In the case of `COc1ccccc1NC(=O)CSc1ccc2nnc(-c3ccc(C)cc3)n2n1`, the IC50 in the test on H9c2 is > 79 µM (inactive).

Turning to `CCCC(=O)Nc1sc2c(c1C(=O)OC)C(C(=O)OC)CC2` (centres undefined), the cytotoxic concentration (CC50) in [1] is 31.6 µM (active).

As to `CC(C)(C)c1ccc(Cn2ccc(-c3ccc4c(c3)OCO4)n2)cc1`, the EC50 is 9.62 µM (active) in test [2], > 150 µM (not active) at Streptokinase A and 79.9 µM (active) with Streptococcus.

Consider `O=C(CCc1nc(O)c2ccccc2n1)Nc1nc(-c2cccs2)cs1`, for which the EC50 is 12.5 µM (active) in test [6], 15.8 µM (active) in test [7] and 104 µM (inconclusive) in the test on H4. The IC50 in the test with H9c2 was 17.3 µM (active).

Regarding `Oc1nc2c(c3c1CCCC3)CCCC2`, the IC50 in the test with H9c2 was > 79 µM (inactive).

Consider `COc1cc(OC)c(NC(=O)c2sc3ncn(CC(=O)N4CCN(c5ccccn5)CC4)c(=O)c3c2C)cc1Cl`, for which the EC50 in test [2] is 11.6 µM (active); on Streptokinase A, > 150 µM (not active); in the test with Streptococcus, 86.6 µM (active).

For the molecule `CC1CN(c2ccc([N+](=O)[O-])cc2C#N)CC(C)O1` (centres undefined), the CC50 in [1] is 34.9 µM (active).

With `Cc1[nH]c2ccccc2c1N=Nc1ccc(F)cc1`, in test [1], the CC50 was 17.2 µM (active).

With `COc1ccc(/C=C/C(=O)c2ccccc2O)cc1CN1CCOCC1`, in the test on H9c2, the IC50 is > 79 µM (inactive).

In the case of `COc1cc(CCNc2ccc3nnc(-c4ccccc4)n3n2)cc(OC)c1OC`, the IC50 in the test with H9c2 is > 79 µM (inactive).

As to `COc1ccc(-c2nn(-c3ccccc3)cc2C(=O)OCC(=O)c2ccc(C)c([N+](=O)[O-])c2)cc1`, the AC50 with INS1 is 0.97 µM (active).

Regarding `Cc1[nH]c2ccccc2c1/C=N/NC(=O)c1cc(-c2cccs2)[nH]n1`, the IC50 in the test on H9c2 was > 79 µM (inactive).

As for `Cc1ccc2nc(-c3ccccc3)cc(C(=O)NNC(=O)c3csc(N4CCOCC4)n3)c2c1`, the IC50 with H9c2 was > 79 µM (inactive).

Take `CC(=O)c1c(C)n(-c2cccc(Cl)c2)c2ccc(O)cc12`: in the test with H9c2, the IC50 was 10.4 µM (active).

Turning to `CCc1ccc(/C=C2\SC(N3CCCC3)=NC2=O)cc1`, the CC50 in test [1] is > 50 µM (active).

On to `COc1ccc(/C=N/NC(=O)c2cc(C(C)(C)C)[nH]n2)cc1COc1ccc(F)cc1F`, for which the EC50 in test [2] was 6.95 µM (active); on Streptokinase A, > 150 µM (not active); in the test with Streptococcus, 11.7 µM (active).

Turning to `COc1ccc(-c2[nH]c(-c3ccc(C)cc3)nc2SCC(=O)NC2CCCC2)cc1`, the CC50 in [1] is 38.9 µM (active).

In the case of `O=C(/C=C/c1cccs1)c1cc(Br)ccc1OC(=O)N1CCOCC1`, in test [1], the CC50 was 18.7 µM (active).

As to `O=C(Cc1ccc(S(=O)(=O)N2CCOCC2)s1)N1CCN(S(=O)(=O)c2ccccc2[N+](=O)[O-])CC1`, the IC50 on Fatty acid synthase [8] was 241 nM (active); on Fatty acid synthase [9], 3.36 µM (active).

For the molecule `CC(C)(C)C(=O)N1N=C(c2ccc(NS(C)(=O)=O)cc2)CC1c1cccs1` (centres undefined), the EC50 is 6.62 µM (active) in [2], > 150 µM (not active) at Streptokinase A and 12.4 µM (active) with Streptococcus.

As to `CC[C@@]12C(=O)N(c3cccc(Br)c3)C(=O)N1[C@H](c1ccc(F)cc1)[C@@H]1C(=O)N(C3CCCCC3)C(=O)[C@@H]12`, the CC50 in [1] is 41.1 µM (active).

Regarding `Cc1ccccc1/N=C1\C(Cl)=C(O)OC1OC(=O)c1ccco1` (centres undefined), at Protein RecA, the EC50 was 11.4 µM (active). For the same molecule, the IC50 on Fatty acid synthase [8] is 3240 nM (active); on Fatty acid synthase [9], 4.35 µM (active).

For `CCOC(=O)N1CCC(n2c(SCC(=O)N3CCC(C)CC3)nc3ccccc3c2=O)CC1`, the IC50 in the test with H9c2 was > 79 µM (inactive).

The term CC50 denotes the concentration giving 50% cytotoxicity. One may read the IC50 as the concentration at which inhibition is half-maximal. The EC50 is the concentration needed to bring the measured effect to its halfway point. For orientation: AC50 means the midpoint of the concentration-response curve, whichever way the signal moves.
